Type in all cases: cell-based
The target of assay [1] is T1, human TLR8 (Homo sapiens, UniProt Q9NR97).
T1 sequence (Q9NR97 27-1041): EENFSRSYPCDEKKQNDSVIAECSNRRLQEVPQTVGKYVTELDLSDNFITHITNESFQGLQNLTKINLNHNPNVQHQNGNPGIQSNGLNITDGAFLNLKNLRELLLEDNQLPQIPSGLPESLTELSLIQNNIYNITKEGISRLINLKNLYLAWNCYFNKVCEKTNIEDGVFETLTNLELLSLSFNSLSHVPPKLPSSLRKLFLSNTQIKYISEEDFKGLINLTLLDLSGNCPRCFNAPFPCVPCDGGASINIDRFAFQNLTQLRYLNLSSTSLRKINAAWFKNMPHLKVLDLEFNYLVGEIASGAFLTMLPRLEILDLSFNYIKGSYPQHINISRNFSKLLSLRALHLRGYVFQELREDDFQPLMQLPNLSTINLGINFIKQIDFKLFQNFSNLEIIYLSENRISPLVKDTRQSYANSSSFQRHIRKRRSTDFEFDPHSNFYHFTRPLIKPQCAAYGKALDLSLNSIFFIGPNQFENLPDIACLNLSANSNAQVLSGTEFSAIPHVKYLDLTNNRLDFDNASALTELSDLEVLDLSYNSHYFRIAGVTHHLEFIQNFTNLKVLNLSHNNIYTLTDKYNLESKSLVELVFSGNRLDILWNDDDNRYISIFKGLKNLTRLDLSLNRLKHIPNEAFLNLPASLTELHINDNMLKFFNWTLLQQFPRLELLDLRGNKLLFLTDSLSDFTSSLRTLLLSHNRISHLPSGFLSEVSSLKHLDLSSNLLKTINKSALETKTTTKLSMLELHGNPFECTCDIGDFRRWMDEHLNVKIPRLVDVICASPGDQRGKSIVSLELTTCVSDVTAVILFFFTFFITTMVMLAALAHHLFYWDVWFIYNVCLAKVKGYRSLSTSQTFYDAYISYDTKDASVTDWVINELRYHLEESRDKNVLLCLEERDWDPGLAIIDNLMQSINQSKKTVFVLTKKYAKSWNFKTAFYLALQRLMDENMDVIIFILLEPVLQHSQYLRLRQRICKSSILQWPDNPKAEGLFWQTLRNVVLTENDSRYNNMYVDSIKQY
As to the kind of experiment: TLR8 inhibition reporter assay (HEK-Blue cells, SEAP reporter). The note with it: HEK-Blue cells overexpressing human TLR8; stimulated with R848 15.9 μM; 22 hour incubation; SEAP readout. In short, it runs like this: (§1)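 HEK-Blue cells with an NF-κB/AP-1-driven SEAP reporter were pre-treated 30 min at room temperature with compound (0.05 nM–50 μM), then stimulated with gardiquimod 7.5 μM (TLR7), R848 15.9 μM (TLR8) or ODN2006 5 nM (TLR9). After 22 h at 37 °C, SEAP was read; % inhibition was referenced to agonist+DMSO and known-inhibitor wells.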
Background: Reporter assays use an easily measured gene product as a stand-in for the process of interest.

Assay [2] addresses T2, human TLR7 (Homo sapiens, UniProt Q9NYK1).
T2 sequence (Q9NYK1 27-1049): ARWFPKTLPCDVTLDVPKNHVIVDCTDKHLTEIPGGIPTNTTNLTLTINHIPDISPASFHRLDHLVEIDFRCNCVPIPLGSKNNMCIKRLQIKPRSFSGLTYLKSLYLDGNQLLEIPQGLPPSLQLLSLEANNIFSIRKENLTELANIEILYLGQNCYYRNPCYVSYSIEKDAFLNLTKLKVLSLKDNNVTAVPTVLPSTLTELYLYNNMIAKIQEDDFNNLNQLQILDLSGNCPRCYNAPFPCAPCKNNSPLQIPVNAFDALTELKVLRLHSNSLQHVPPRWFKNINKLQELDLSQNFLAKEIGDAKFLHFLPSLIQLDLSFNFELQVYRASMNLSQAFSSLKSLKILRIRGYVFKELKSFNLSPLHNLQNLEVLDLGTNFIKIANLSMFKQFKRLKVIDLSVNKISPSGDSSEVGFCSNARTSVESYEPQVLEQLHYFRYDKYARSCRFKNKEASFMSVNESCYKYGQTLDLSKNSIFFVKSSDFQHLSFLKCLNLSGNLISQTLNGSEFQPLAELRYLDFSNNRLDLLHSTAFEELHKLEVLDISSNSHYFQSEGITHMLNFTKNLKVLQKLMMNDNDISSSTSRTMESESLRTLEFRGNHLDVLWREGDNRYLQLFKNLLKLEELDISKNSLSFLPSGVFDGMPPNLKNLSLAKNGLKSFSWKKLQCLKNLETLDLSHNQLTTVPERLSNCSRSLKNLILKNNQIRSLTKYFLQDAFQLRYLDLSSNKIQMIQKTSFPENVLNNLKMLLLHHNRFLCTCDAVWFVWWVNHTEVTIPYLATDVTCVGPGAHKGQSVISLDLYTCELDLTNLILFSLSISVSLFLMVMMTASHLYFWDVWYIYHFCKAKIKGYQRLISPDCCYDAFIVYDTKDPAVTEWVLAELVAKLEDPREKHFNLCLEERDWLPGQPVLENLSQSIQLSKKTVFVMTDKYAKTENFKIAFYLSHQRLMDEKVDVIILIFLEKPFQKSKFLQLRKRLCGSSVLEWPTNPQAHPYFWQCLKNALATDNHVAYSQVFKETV
Briefly: TLR7 inhibition reporter assay (HEK-Blue cells, SEAP reporter). The conditions noted are these: HEK-Blue cells overexpressing human TLR7; stimulated with gardiquimod 7.5 μM; 22 hour incubation; SEAP readout. The gist of the method:
as §1

Assay [3] deals with T3, human TLR9 (Homo sapiens, UniProt Q9NR96).
T3 sequence (Q9NR96 26-1032): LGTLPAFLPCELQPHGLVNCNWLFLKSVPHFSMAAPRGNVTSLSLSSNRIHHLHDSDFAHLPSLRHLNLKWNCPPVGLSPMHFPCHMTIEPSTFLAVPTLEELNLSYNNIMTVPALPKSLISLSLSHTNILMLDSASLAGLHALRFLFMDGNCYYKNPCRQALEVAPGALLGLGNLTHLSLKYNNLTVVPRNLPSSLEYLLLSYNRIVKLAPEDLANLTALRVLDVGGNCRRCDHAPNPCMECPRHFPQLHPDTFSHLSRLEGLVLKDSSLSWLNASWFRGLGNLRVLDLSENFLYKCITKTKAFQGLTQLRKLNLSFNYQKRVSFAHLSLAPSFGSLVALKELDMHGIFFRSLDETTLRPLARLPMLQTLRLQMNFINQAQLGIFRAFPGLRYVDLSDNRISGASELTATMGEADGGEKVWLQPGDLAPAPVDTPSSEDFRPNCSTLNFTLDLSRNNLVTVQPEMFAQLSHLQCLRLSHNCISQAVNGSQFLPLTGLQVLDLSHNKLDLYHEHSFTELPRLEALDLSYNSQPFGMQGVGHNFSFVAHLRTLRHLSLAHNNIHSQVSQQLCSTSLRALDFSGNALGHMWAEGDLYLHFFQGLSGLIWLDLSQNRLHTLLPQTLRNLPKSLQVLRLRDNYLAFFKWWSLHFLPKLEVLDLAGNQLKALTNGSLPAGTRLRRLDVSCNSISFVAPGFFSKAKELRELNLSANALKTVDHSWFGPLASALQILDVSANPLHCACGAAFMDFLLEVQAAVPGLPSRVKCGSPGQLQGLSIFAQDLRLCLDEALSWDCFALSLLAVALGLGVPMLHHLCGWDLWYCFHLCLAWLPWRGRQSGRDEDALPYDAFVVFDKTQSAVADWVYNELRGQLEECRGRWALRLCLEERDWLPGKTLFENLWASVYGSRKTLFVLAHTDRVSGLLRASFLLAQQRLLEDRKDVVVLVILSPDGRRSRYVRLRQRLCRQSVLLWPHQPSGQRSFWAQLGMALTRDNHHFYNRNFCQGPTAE
Briefly: TLR9 inhibition reporter assay (HEK-Blue cells, SEAP reporter). The conditions noted are these: HEK-Blue cells overexpressing human TLR9; stimulated with ODN2006 5 nM; 22 hour incubation; SEAP readout. In short, it runs like this: as §1

For 13 compounds, IC50 results are on record in patent US12486267B2, “Imidazo[1,2-A]pyridine and [1,2,4]triazolo[1,5-A]pyridine derivatives as TLR9 inhibitors for the treatment of fibrosis” (BRISTOL-MYERS SQUIBB COMPANY, priority 2020, dated 2025).

Molecules are shown by their SMILES. A value given as a limit tells only on which side of the number the result lay.

As a reminder, the IC50 is the concentration at which inhibition is half-maximal. A high value points to a need for much substance.

In the case of `COc1ccc(-c2cn3c(n2)CCC(C2CCN(C4CC5(C4)CN(C4CCC4)C5)CC2)C3)cc1OC` (single isomer, unassigned) [Example 50, 6-(1-(2-cyclobutyl-2-azaspiro[3.3]heptan-6-yl)piperidin-4-yl)-2-(3,4-dimethoxyphenyl)-5,6,7,8-tetrahydroimidazo[1,2-a]pyridine], the figures for the concentration for half-maximal inhibition (IC50) in assay [1], in assay [2] and in assay [3] were more than 50 µM, 5.3 µM and 0.04 µM, respectively.

As to `COc1ccc(-c2cn3c(n2)CCC(C2CCN(C4CCN(C(=O)C5CC5)CC4)CC2)C3)cc1OC` (single isomer, unassigned) [Example 43, cyclopropyl(4-(2-(3,4-dimethoxyphenyl)-5,6,7,8-tetrahydroimidazo[1,2-a]pyridin-6-yl)-[1,4′-bipiperidin]-1′-yl)methanone], the IC50 in assay [1] was more than 50 µM; in assay [2], 45 µM; in assay [3], 0.375 µM.

With `CS(=O)(=O)c1ccc(-c2cn3c(n2)CC[C@@H](C2CCN(C4CC5CCC(C4)N5CC4CC4)CC2)C3)cc1` (single isomer, unassigned) [Example 140], the values for the half-maximal inhibitory concentration (IC50) in assay [1], in assay [2] and in assay [3] were more than 50 µM, more than 50 µM and 0.352 µM, respectively.

Consider `CC(C)CN1CCCC(N2CCC(c3cc(F)c4nc(-c5ccc(S(C)(=O)=O)cc5)cn4c3)CC2)CC1` (single isomer, unassigned) [Example 125, 8-fluoro-6-(1-(1-isobutylazepan-4-yl)piperidin-4-yl)-2-(4-(methylsulfonyl)phenyl) imidazo[1,2-a]pyridine], for which the figures for the IC50 in assay [1], in assay [2] and in assay [3] were 47.4 µM, 12.7 µM and 0.02 µM, respectively.

For `COc1ccc(-c2cn3c(n2)CC[C@H](C2CCN(C4CC5CCC(C4)N5C(C)C)CC2)C3)cc1OC` (single isomer, unassigned) [Example 134], the results for the IC50 in assay [1], in assay [2] and in assay [3] were more than 50 µM, more than 50 µM and 0.067 µM, respectively.

`COc1ccc(-c2cn3cc(C4CCN(C5CC6CCC(C5)N6CC(C)C)CC4)cc(C)c3n2)cc1OC` (single isomer, unassigned) [Example 19, 2-(3,4-dimethoxyphenyl)-6-(1-(8-isobutyl-8-azabicyclo[3.2.1]octan-3-yl)piperidin-4-yl)-8-methylimidazo[1,2-a]pyridine]: the IC50 in assay [1] is more than 50 µM; in assay [2] it was 2.4 µM; in assay [3], 0.058 µM.

In the case of `CC(C)CN1C2CCC1CC(N1CCC([C@H]3CCc4nc(-c5ccc(S(C)(=O)=O)cc5)cn4C3)CC1)C2` (single isomer, unassigned) [Example 79], the concentration for half-maximal inhibition (IC50) in assay [1] came to 16.7 µM; in assay [2] it was 16.7 µM; in assay [3] it was 0.171 µM.

As for `CC(C)N1CCCC(N2CCC(c3cc(F)c4nc(-c5ccc(S(C)(=O)=O)cc5)cn4c3)CC2)CC1` (single isomer, unassigned) [Example 72, 8-fluoro-6-(1-(1-isopropylazepan-4-yl)piperidin-4-yl)-2-(4-(methylsulfonyl)phenyl)imidazo[1,2-a]pyridine], the IC50 in assay [1] was more than 50 µM; in assay [2] it was 3 µM; in assay [3] it was 0.0026 µM.

As for `COc1ccc(-c2cn3cc(C4CCN(C5CCN(CC(C)C)CC5)CC4)cc(C)c3n2)cc1OC` [Example 3, 2-(3,4-dimethoxyphenyl)-6-(1′-isobutyl-[1,4′-bipiperidin]-4-yl)-8-methylimidazo[1,2-a]pyridine], the IC50 in assay [1] is more than 50 µM; in assay [2] it was 1.8 µM; in assay [3], 0.032 µM.

Take `COc1ccc(-c2cn3cc(C4CCN(C5CCN(C6CC6)CC5)CC4)cc(C)c3n2)cc1OC` [Example 1, 6-(1′-cyclopropyl-[1,4′-bipiperidin]-4-yl)-2-(3,4-dimethoxyphenyl)-8-methylimidazo [1,2-a]pyridine]: the IC50 in assay [1] is more than 50 µM; in assay [2] it was 14 µM; in assay [3], 0.056 µM.

In the case of `CC(C)N1C2CCC1CC(N1CCC(c3cc(F)c4nc(-c5ccc(S(C)(=O)=O)cc5)cn4c3)CC1)C2` (single isomer, unassigned) [Example 68, 8-fluoro-6-(1-(8-isopropyl-8-azabicyclo[3.2.1]octan-3-yl)piperidin-4-yl)-2-(4-(methylsulfonyl)phenyl)imidazo[1,2-a]pyridine], the values for the 50% inhibitory concentration (IC50) in assay [1], in assay [2] and in assay [3] were more than 50 µM, 8.2 µM and 0.11 µM, respectively.

Take `CS(=O)(=O)c1ccc(-c2cn3cc(C4CCN(C5CCN(C6CCOCC6)CC5)CC4)cc(F)c3n2)cc1` [Example 112, 8-fluoro-2-(4-(methylsulfonyl)phenyl)-6-(1′-(tetrahydro-2H-pyran-4-yl)-[1,4′-bipiperidin]-4-yl)imidazo[1,2-a]pyridine]: the values for the half-inhibitory concentration (IC50) in assay [1], in assay [2] and in assay [3] were more than 50 µM, 4.5 µM and 0.098 µM, respectively.

As for `CC(C)CN1C2CCC1CC(N1CCC([C@H]3CCc4nc(-c5ccc(S(C)(=O)=O)cc5)cn4C3)CC1)C2` (single isomer, unassigned) [Example 80], the IC50 in assay [1] was more than 50 µM; in assay [2] it was more than 50 µM; in assay [3], 0.052 µM.
